EC50 data for 21 molecules are collected here from patent publication US9382216B2, “Substituted morpholines as modulators for the calcium sensing receptor” (LUPIN LIMITED, priority 2011, dated 2016).

For the experiment, the target named is T1, hCaSR (Calcium sensing receptor) in stably transfected HEK293 cells (Homo sapiens, UniProt P41180).
T1 construct: expressed in transfected cells; host or cells: HEK293 (stably transfected)
T1 sequence (P41180 20-1078): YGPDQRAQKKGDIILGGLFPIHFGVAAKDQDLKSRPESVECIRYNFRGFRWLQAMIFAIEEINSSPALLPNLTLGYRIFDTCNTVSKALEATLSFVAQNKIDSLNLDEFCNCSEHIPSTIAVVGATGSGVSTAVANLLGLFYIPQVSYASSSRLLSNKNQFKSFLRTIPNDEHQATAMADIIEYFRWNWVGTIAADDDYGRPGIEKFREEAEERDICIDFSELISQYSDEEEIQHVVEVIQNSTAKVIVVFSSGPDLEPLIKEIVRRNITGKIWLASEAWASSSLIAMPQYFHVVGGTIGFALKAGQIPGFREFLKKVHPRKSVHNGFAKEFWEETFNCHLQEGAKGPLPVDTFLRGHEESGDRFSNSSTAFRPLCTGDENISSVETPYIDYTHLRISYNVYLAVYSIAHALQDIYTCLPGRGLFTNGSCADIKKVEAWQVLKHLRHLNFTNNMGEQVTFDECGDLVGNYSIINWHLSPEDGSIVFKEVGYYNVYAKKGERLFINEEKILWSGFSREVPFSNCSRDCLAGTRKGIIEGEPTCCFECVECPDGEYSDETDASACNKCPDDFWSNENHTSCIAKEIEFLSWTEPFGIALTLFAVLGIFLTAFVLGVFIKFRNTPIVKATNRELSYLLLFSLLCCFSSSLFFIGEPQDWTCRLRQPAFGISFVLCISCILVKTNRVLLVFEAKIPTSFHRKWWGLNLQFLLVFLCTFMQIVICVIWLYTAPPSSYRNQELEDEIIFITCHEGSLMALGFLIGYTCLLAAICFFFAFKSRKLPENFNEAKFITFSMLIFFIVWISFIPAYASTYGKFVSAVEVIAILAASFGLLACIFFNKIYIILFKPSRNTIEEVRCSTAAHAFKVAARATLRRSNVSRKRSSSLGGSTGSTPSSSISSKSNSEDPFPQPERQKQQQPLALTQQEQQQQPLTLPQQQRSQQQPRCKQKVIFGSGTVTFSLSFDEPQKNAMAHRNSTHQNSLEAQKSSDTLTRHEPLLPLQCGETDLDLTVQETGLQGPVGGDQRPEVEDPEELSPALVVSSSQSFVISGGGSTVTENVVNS
Kind of experiment: In-vitro assay of calcimimetics through modulation of calcium sensing receptor (CaSR): increase in intracellular calcium, FLIPR. It is filed as cell-based. The following applies: HEK293 cells expressing hCaSR; intracellular calcium (Fluo4NW, FLIPR); 0.3 mM CaCl2; 8-point assay; read-out: EC50 in range. How it is done:
In-Vitro Assay Method of Calcimemtics Through Modulation of Calcium Sensing Receptor (CaSR):
The ability of the compounds to modulate Calcium sensing receptor is determined by measuring an increase in intracellular calcium [Ca^2+i]. Stably transfected HEK293 cells expressing hCaSR_pTriEx-3 hygro vector are developed. Cells are grown overnight on a 96-well plate to 80% confluency in Ham's F12 containing 20% FBS at 37° C., 5% CO2 Subsequently, cells are washed extensively with 20 mM HEPES buffer containing 126 mM NaCl2, 1 mM MgCl2 and 4 mM KCl2 to remove serum components that might interfere with the assay. Cells are loaded with calcium sensing Fluo4NW dye in HEPES base buffer containing 0.1% BSA and 1 mg/ml glucose for 30 minutes to measure changes in intracellular calcium. The activities of the compounds are measured in FLIPR using 0.3 mM CaCl2 in 20 mM HEPES base buffer. The effectiveness of the compound to modulate receptor activity is determined by calculating the EC50 responses for that compound in an 8-point assay and plotted using GraphPad Prism 5.
The compounds prepared were tested using the above assay procedure and the results obtained are given below.
In general terms: Calcium flux is commonly read through the fluorescence of an indicator in the cells.

pEC50: −log10 of the molar value. Structures can show the parent of a compound that is named as a salt.

By pEC50 is commonly meant the EC50 on a negative log10 scale, so that one unit is a factor of ten. Take `C[C@@H](NCC1CN(Cc2ccc(F)cc2C(F)(F)F)C(=O)CO1)c1cccc2ccccc12` (stereo partly drawn) [Example 82, 4-(4-Fluoro-2-(trifluoromethyl)benzyl)-6-((((R)-1-(naphthalen-1-yl)ethyl)amino)methyl)morpholin-3-one hydrochloride]: the pEC50 was over 7.70.

`COc1cc([C@@H](C)NCC2CN(C3CCCC3)C(=O)CO2)ccc1F` (stereo partly drawn) [Example 96, 4-Cyclopentyl-6-((((R)-1-(4-fluoro-3-methoxyphenyl)ethyl)amino)methyl)morpholin-3-one hydrochloride]: the pEC50 is 6.70 to 7.30. `C[C@@H](NCCC1CN(c2ccc(C(F)(F)F)cc2)CCO1)c1cccc2ccccc12` (stereo partly drawn) [Example 105, (1R)-1-(Naphthalen-1-yl)-N-(2-(4-(4-(trifluoromethyl)phenyl)morpholin-2-yl)ethyl)ethanamine]: the negative logarithm of the EC50 (pEC50) was 7.30 to 7.70. As for `Cc1cccc(N2CCOCC2CN[C@H](C)c2cccc3ccccc23)c1` (stereo partly drawn) [Example 120, (1R)-1-(Naphthalen-1-yl)-N-((4-(m-tolyl)morpholin-3-yl)methyl)ethanamine hydrochloride], the negative logarithm of the EC50 (pEC50) is over 7.70. `COc1cccc([C@@H](C)NCC2CN(c3cccc(C)c3)CCO2)c1` (stereo partly drawn) [Example 134, (1R)-1-(3-Methoxyphenyl)-N-((4-(m-tolyl)morpholin-2-yl)methyl)ethanamine hydrochloride]: the negative logarithm of the EC50 (pEC50) is over 7.70. For the molecule `COc1cccc([C@@H](C)NCC2CN(c3ccc(F)c(F)c3)CCO2)c1` (stereo partly drawn) [Example 135, (1R)-N-((4-(3,4-Difluorophenyl)morpholin-2-yl)methyl)-1-(3-methoxyphenyl)ethanamine hydrochloride], the pEC50 was over 7.70. As to `C[C@@H](NCC1CN(c2ccc(C(=O)O)cc2)CCO1)c1cccc2ccccc12` (stereo partly drawn) [Example 147, 4-(2-((((R)-1-(Naphthalen-1-yl)ethyl)amino)methyl)morpholino)benzoic acid hydrochloride], the pEC50 is 6.70 to 7.30. Consider `C[C@@H](NCC1CN(c2cccc(F)c2)CCO1)c1cccc2ccccc12` (stereo partly drawn) [Example-3, (1R)-N-((4-(3-Fluorophenyl)morpholin-2-yl)methyl)-1-(naphthalen-1-yl)ethanamine hydrochloride], for which the pEC50 is 7.30 to 7.70. As for `C[C@@H](NCC1COCCN1c1cccc(F)c1)c1cccc2ccccc12` (stereo partly drawn) [Example-9], the negative logarithm of the EC50 (pEC50) is over 7.70.

As to `COc1cccc([C@@H](C)NCC2CN(c3ccc(OC)c(F)c3)C(=O)CO2)c1` (stereo partly drawn) [Example-50, 4-(3-Fluoro-4-methoxyphenyl)-6-((((R)-1-(3-methoxyphenyl)ethyl)amino)methyl)morpholin-3-one], the pEC50 was 7.30 to 7.70. Consider `COc1cccc([C@@H](C)NCC2COCCN2c2ccc(C)cc2)c1` (stereo partly drawn) [compound 8], for which the pEC50 was 6.70 to 7.30.

With `COc1cccc([C@@H](C)NCC2COCCN2c2ccc(F)c(F)c2)c1` (stereo partly drawn) [compound 12], the negative-log EC50 (pEC50) was 6.70 to 7.30. The figure for `COc1cccc([C@@H](C)NCC2COCCN2c2cccc(F)c2)c1` (stereo partly drawn) [compound 15] is 7.30 to 7.70. The figure for `C[C@@H](NCC1COCCN1c1ccc(F)cc1)c1cccc2ccccc12` (stereo partly drawn) [compound 17] is 7.30 to 7.70. Take `C[C@@H](NCC1CN(c2cccc(C(F)(F)F)c2)CCO1)c1cccc2ccccc12` (stereo partly drawn) [compound 22]: the negative-log EC50 (pEC50) is 7.30 to 7.70.

Turning to `C[C@@H](NCC1CN(c2ccc(F)cc2)CCO1)c1cccc2ccccc12` (stereo partly drawn) [compound 28], the negative logarithm of the EC50 (pEC50) is over 7.70. In the case of `COc1cccc([C@@H](C)NCC2CN(c3ccccc3)CCO2)c1` (stereo partly drawn) [compound 32] it was 6.70 to 7.30; in that of `C[C@@H](NCC1CN(c2cccc(F)c2F)C(=O)CO1)c1cccc2ccccc12` (stereo partly drawn) [compound 54, 4-(2,3-Difluorophenyl)-6-((((R)-1-(naphthalen-1-yl)ethyl)amino)methyl)morpholin-3-one hydrochloride], over 7.70. With `C[C@@H](NCC1CN(c2ccc3c(c2)OC(F)(F)O3)C(=O)CO1)c1cccc2ccccc12` (stereo partly drawn) [compound 59, 4-(2,2-Difluorobenzo[d][1,3]dioxol-5-yl)-6-((((R)-1-(naphthalen-1-yl)ethyl)amino)methyl)morpholin-3-one hydrochloride], the pEC50 was 7.30 to 7.70. The figure for `C[C@@H](NCC1CN(c2ccc(CC(=O)O)cc2)C(=O)CO1)c1cccc2ccccc12` (stereo partly drawn) [compound 60, 2-(4-(2-((((R)-1-(Naphthalen-1-yl)ethyl)amino)methyl)-5-oxomorpholino)phenyl)acetic acid hydrochloride] is 6.70 to 7.30. For the molecule `COc1ccc(N2CC(CN[C@H](C)c3cccc4ccccc34)OCC2=O)cc1F` (stereo partly drawn) [compound 61, 4-(3-Fluoro-4-methoxyphenyl)-6-((((R)-1-(naphthalen-1-yl)ethyl)amino)methyl)morpholin-3-one hydrochloride], the negative-log EC50 (pEC50) was over 7.70.
